{"source": "patent US6447820B1", "about": "“Pharmaceutical composition for the prevention and treatment of scar tissue” (priority 2001, dated 2002)", "origin": "cited, not measured here", "key": {"[1]": {"settings": "mice"}, "[2]": {"settings": "mice", "remark": "listed apart in the source"}, "[3]": {"settings": "mice", "remark": "listed apart in the source"}, "[4]": {"settings": "X-ray irradiated recipient mice"}, "[5]": {"settings": "mice", "remark": "listed apart in the source"}, "[6]": {"settings": "guinea pigs"}}}
{"molecule": "COc1ccc2c(c1O)-c1c(O)c(OC)cc3c1[C@H](C2)[N+](C)(C)CC3", "note": "[magnoflorine]", "values": [{"measurement": "local GvH reactions", "setting": "[1]", "value": "suppress"}]}
{"molecule": "CC1(C)O[C@H]2CC(=O)OC[C@]23[C@H]2CC[C@@]4(C)[C@H](c5ccoc5)OC(=O)[C@H]5O[C@]54[C@]2(C)C(=O)C[C@@H]13", "note": "[limonin]", "values": [{"measurement": "sleeping time induced by alpha-chloralose-urethane", "setting": "[2]", "value": "shorten"}]}
{"molecule": "CC1(C)OC(=O)C=C[C@]2(C)[C@H]3CC[C@@]4(C)[C@H](c5ccoc5)OC(=O)[C@H]5O[C@]54[C@]3(C)C(=O)C[C@@H]12", "note": "[obacunone]", "values": [{"measurement": "sleeping time induced by alpha-chloralose-urethane", "setting": "[2]", "value": "shorten"}]}
{"molecule": "COc1cc2c(cc1O)C[C@H]1c3cc(O)c(OC)cc3CC[N@@+]1(C)C2", "note": "[phellodendrine]", "values": [{"measurement": "effector phase of SRBC-induced delayed type hypersensitivity", "setting": "[3]", "value": "did not suppress"}, {"measurement": "induction phase of SRBC-induced delayed type hypersensitivity", "setting": "[3]", "value": "suppressed"}, {"measurement": "systemic allogeneic GvH reactions", "setting": "[4]", "value": "suppressed"}, {"measurement": "antibody production to SRBC", "setting": "[5]", "value": "did not affect"}, {"measurement": "effector phase of tuberculin-induced delayed type hypersensitivity", "setting": "[6]", "value": "did not suppress"}, {"measurement": "induction phase of tuberculin-induced delayed type hypersensitivity", "setting": "[6]", "value": "suppressed"}, {"measurement": "local GvH reactions", "setting": "[1]", "value": "suppress"}, {"measurement": "local semisyngeneic GvH reactions", "setting": "[1]", "value": "suppressed"}]}
